Data set [1] has as its system Daudi cells. To be noted: 2 hr incubation; cited from earlier work.
For data set [2] the following is noted: given orally to mice; cited from earlier work.
The conditions of data set [3]: humans; cited from earlier work.
Data set [4] relates to 39 human tumor cell lines. To be noted: cited from earlier work.
The nature of data set [5]: SEC of isolated DHFR^2 oligomers after storage or dilution. Format: physicochemical. To be noted: oligomers with MTX^2-C9 isolated by SEC (dimers, tetramers, octamers), stored 2 weeks at 4° C. As for the experimental part: SEC was employed to initially assess the degree of DHFR^2 induced oligomerization by MTX^2. The purified DHFR^2-13 (10 uM) and MTX^2-C9 were mixed at a range of stoichiometries, allowed to equilibrate for one hour, and assayed by size exclusion chromatography on a Superdex G75 Column (Amersham).
Assemblies of this size, however, approach or exceed the exclusion limit of the G75 matrix, preventing definitive assignment of the molecular weight and oligomer number. The dimeric fraction increased at the expense of the larger oligomers with time, becoming the dominant species. […] For DHFR^2-3, tetramers were the dominant species, further increasing with time. […] In addition, in contrast to the expected result from linear oligomers, no observable change in composition was observed when oligomer samples were dilution to a concentration of 5 nM.

For `COc1cccc2c1C(=O)c1c(O)c3c(c(O)c1C2=O)C[C@@](O)(C(=O)CO)C[C@@H]3O[C@H]1C[C@H](N)[C@H](O)[C@H](C)O1` [doxorubicin], the IC50 in data set [1] was 225 ± 35 nM.

Turning to `COc1cc(Cc2cnc(N)nc2N)cc(OC)c1OC` [trimethoprim], the LD50 result in data set [2] is given as “greater than 3 grams/kg”. In data set [3], the half-life is 11 h.

Take auristatin: the half-maximal inhibitory concentration (IC50) is 4.6 ± 4.3 nM in data set [1] and 3.2 ± 0.51 nM in data set [4].

B1: DHFR^2-1G: E. coli DHFR-DHFR fusion protein with 1 (G) amino acid linker (protein)
chain: MISLIAALAVDRVIGMENAMPWNLPADLAWFKRNTLNKPVIMGRHTWESIGRPLPGRKNIILSSQPGTDDRVTWVKSVDEAIAACGDVPEIMVIGGGRVYEQFLPKAQKLYLTHIDAEVEGDTHFPDYEPDDWESVFSEFHDADAQNSHSYCFEILERRGMISLIAALAVDRVIGMENAMPWNLPADLAWFKRNTLNKPVIMGRHTWESIGRPLPGRKNIILSSQPGTDDRVTWVKSVDEAIAACGDVPEIMVIGGGRVYEQFLPKAQKLYLTHIDAEVEGDTHFPDYEPDDWESVFSEFHDADAQNSHSYCFEILERR
modifications: left off: small tags and cut ends
notes: E. coli DHFR-DHFR fusion protein with 1 (G) amino acid linker
For B1, the “oligomer composition on re-injection after storage” value (from here on “oligomer composition”) in data set [5] is “no change in the oligomer composition”.

B2: DHFR^2-13: two wild-type E. coli DHFR modules separated by a 13 (GLG5LVPRGT) amino acid linker (protein)
chain: MISLIAALAVDRVIGMENAMPWNLPADLAWFKRNTLNKPVIMGRHTWESIGRPLPGRKNIILSSQPGTDDRVTWVKSVDEAIAACGDVPEIMVIGGGRVYEQFLPKAQKLYLTHIDAEVEGDTHFPDYEPDDWESVFSEFHDADAQNSHSYCFEILERRGLGGGGGLVPRGTMISLIAALAVDRVIGMENAMPWNLPADLAWFKRNTLNKPVIMGRHTWESIGRPLPGRKNIILSSQPGTDDRVTWVKSVDEAIAACGDVPEIMVIGGGRVYEQFLPKAQKLYLTHIDAEVEGDTHFPDYEPDDWESVFSEFHDADAQNSHSYCFEILERR
modifications: left off: small tags and cut ends
For the molecule B2, in data set [5], the “oligomer composition” value is recorded as “no change in the oligomer composition”.

B3: DHFR^2-3: E. coli DHFR-DHFR fusion protein with 3 amino acid linker (GGT) (protein)
chain: MISLIAALAVDRVIGMENAMPWNLPADLAWFKRNTLNKPVIMGRHTWESIGRPLPGRKNIILSSQPGTDDRVTWVKSVDEAIAACGDVPEIMVIGGGRVYEQFLPKAQKLYLTHIDAEVEGDTHFPDYEPDDWESVFSEFHDADAQNSHSYCFEILERRGGTMISLIAALAVDRVIGMENAMPWNLPADLAWFKRNTLNKPVIMGRHTWESIGRPLPGRKNIILSSQPGTDDRVTWVKSVDEAIAACGDVPEIMVIGGGRVYEQFLPKAQKLYLTHIDAEVEGDTHFPDYEPDDWESVFSEFHDADAQNSHSYCFEILERR
modifications: left off: small tags and cut ends
With B3, the “oligomer composition” value in data set [5] is on record as “no change in the oligomer composition”.

The values are drawn from patent US8580921B2, “Protein nanorings” (University of Minnesota, priority 2005, dated 2013).
